# Source: patent US5563149A, “Aqueous solutions of pyridone carboxylic acids” (Cheil Foods & Chemicals, Inc., priority 1994, dated 1996)
# Assays:
# [1] = Solubility of compound A in water with added acid or amino acid, and pH of the saturated solution; type: physicochemical; details: for solubility at 4 h: water, per ml of water
# Method: The organic acids suitable as solubilizing agents are chosen depending on the correlationship between the organic acid and the physical properties of the selected quinolone compound. Therefore, a varity of organic acids and amino acids were evaluated to determine whether certain acids are suitable as solubilizing agents capable of increasing the water solubility of compound A and the pH of the aqueous solution is suitable for injection and/or infusion solutions.
# Exemplary active substance in practicing the present invention is compound A. The test method of the solubility is set forth as follows:
# Compound A was mixed with an organic acid or an amino acid in the mole ratios between 0.5 and 6 before water was added with reflux. Then, the resulting solution was rigorously shaken with stirring for 5 minutes so that it was made homogeneous. After the homogenous solution was left to stand at elevated temperature for 4 hours, it was extracted through 0.45 micro of membrane filter. The amounts of active substances present in extracts were quantified by high pressure liquid chromatography.
# [2] = tested on: gram-negative and gram-positive bacteria; assay: in vitro antibacterial activity (gram-negative and gram-positive bacteria); type: cell-based
# [3] = bioavailability and half-life; type: in vivo; details: compared with quinolone drugs commercially available or in development
# [4] = solubility in water (without solubilizing agent); type: physicochemical; details: no acid added
# [5] = with asparagine, glutamic acid or gluconic acid; Korean Patent Application Publication No. 89-2040; cited from earlier work
structure (smiles),measurement,setting,value
"C[C@]12C[C@@H](N)[C@H]1CN(c1nc3c(cc1F)c(=O)c(C(=O)O)cn3C1CC1)C2 (relative stereo) [compound A, 1-cyclopropyl-6-fluoro-l,4-dihydro-4-oxo-7-([1α, 5α,6β]6-amino-1-methyl-3-azabicyclo[3.2.0]heptan-3-yl)-1,8-naphtyridine-3-carboxylic acid]",pH of saturated solution,[1]; compound A with Alanine,6.4
same,pH of saturated solution,[1]; compound A with Arginine,10.0
same,pH of saturated solution,[1]; compound A with Asparagine,6.2
same,pH of saturated solution,[1]; compound A with Aspartic acid,5.3
same,pH of saturated solution,[1]; compound A with Cinnamic acid,1.8
same,pH of saturated solution,[1]; compound A with Galacturonic (acid),3.3
same,pH of saturated solution,[1]; compound A with Gluconic acid,3.3
same,pH of saturated solution,[1]; compound A with Gluconic acid lactone,3.6
same,pH of saturated solution,[1]; compound A with Glutamine,6.4
same,pH of saturated solution,[1]; compound A with Glutaric acid,3.8
same,pH of saturated solution,[1]; compound A with Histidine,7.6
same,pH of saturated solution,[1]; compound A with Hydrochloric acid,2.0
same,pH of saturated solution,[1]; compound A with Isoleucine,6.4
same,pH of saturated solution,[1]; compound A with L-cysteine,6.2
same,pH of saturated solution,[1]; compound A with L-valine,6.4
same,pH of saturated solution,[1]; compound A with Malic acid,3.4
same,pH of saturated solution,[1]; compound A with Methionine,6.4
same,pH of saturated solution,[1]; compound A with Oxalic acid,4.2
same,pH of saturated solution,[1]; compound A with Succinic acid,4.0
same,pH of saturated solution,[1]; compound A with Threonine,6.3
same,solubility at 4 h,[1]; with Alanine,1300 µg/mL
same,solubility at 4 h,[1]; with Arginine,8200 µg/mL
same,solubility at 4 h,[1]; with Asparagine,2100 µg/mL
same,solubility at 4 h,[1]; with Aspartic acid,37600 µg/mL
same,solubility at 4 h,[1]; with Cinnamic acid,2100 µg/mL
same,solubility at 4 h,[1]; with Galacturonic (acid),18300 µg/mL
same,solubility at 4 h,[1]; with Gluconic acid lactone,28100 µg/mL
same,solubility at 4 h,[1]; with Gluconic acid,33400 µg/mL
same,solubility at 4 h,[1]; with Glutamine,1600 µg/mL
same,solubility at 4 h,[1]; with Glutaric acid,12100 µg/mL
same,solubility at 4 h,[1]; with Histidine,2100 µg/mL
same,solubility at 4 h,[1]; with Hydrochloric acid,44300 µg/mL
same,solubility at 4 h,[1]; with Isoleucine,1400 µg/mL
same,solubility at 4 h,[1]; with L-cysteine,2300 µg/mL
same,solubility at 4 h,[1]; with L-valine,1300 µg/mL
same,solubility at 4 h,[1]; with Malic acid,48700 µg/mL
same,solubility at 4 h,[1]; with Methionine,1500 µg/mL
same,solubility at 4 h,[1]; with Oxalic acid,3500 µg/mL
same,solubility at 4 h,[1]; with Succinic acid,47600 µg/mL
same,solubility at 4 h,[1]; with Threonine,1500 µg/mL
same,solubility of compound A / pH of the resulting solution (in words),"[1]; with glutaric acid, cinnamic acid, galacturonic acid, glutamine, isoleusine, threonine, histidine, L-cysteine, alanine, arginine, L-valine, methionine or oxaline",did not substantilly improve the solubility of compound A or the pH of the resulting solution is unsuitable as injection and/or infusion solutions
same,antibacterial activities compared with Lomefloxacin and Ofloxacin,[2],superior
same,bioavailability,[3],better
same,half-life,[3],better
same,solubility in water,[4],not substantially soluble or little soluble in water
CCn1cc(C(=O)O)c(=O)c2cc(F)c(N3CCNCC3)nc21 [Enoxacin],deposits in solutions,[5],do not lead to deposits
